Experimental data as given in paper PMC4388757, “In Vitro and In Vivo Metabolism and Inhibitory Activities of Vasicine, a Potent Acetylcholinesterase and Butyrylcholinesterase Inhibitor” (PLoS ONE, 2015).
Where a name gives a salt, the structure may show the parent alone. Read-outs that look alike come from different tables or passages of the source.

Columns and labels:
[1] = Metabolite detection in rat bio-specimens (urine, feces, bile, plasma) by UPLC/ESI-QTOF-MS after oral VAS; format: in vivo
Source text: Bio-specimens (urine, feces, bile and plasma) collected form 18 male rats were used to study the VAS metabolism in vivo. […] Baseline urine and fecal samples were collected before oral administration of VAS. After intraperitoneal injection of urethane (1.4 g/kg), abdominal incision was made for bile sampling and the common bile duct was cannulated with a Closed IV Catheter System (ID = 0.07 cm, Becton Dickinson, USA) to collect bile samples. […] Baseline rat bile was collected before oral administration of VAS. All the samples were stored at −20°C until analysis. Blood was collected from the angular vein of the last six male rats at 0.25, 0.5, 1, and 2 h after oral administration of VAS 50 mg/kg VAS. Plasma was obtained by centrifuging blood at 4000 × g for 10 min, and then stored at −20°C until use.
Up to 1 mL of urine was thoroughly mixed with same volume of acetonitrile, and then centrifuged at 15,000 × g for 10 min. The supernatant was evaporated until dry under nitrogen at 37°C. The residue of the supernatant was re-dissolved in 200 μL of 5% methanol, and then centrifuged at 15,000 × g for 10 min. The supernatant was injected into the chromatographic systems for separation and identification of metabolites.
The supernatant was then evaporated to dryness by a gentle stream of nitrogen at 37°C. The residue was dissolved by 200 μL of 5% methanol and centrifuged at 15,000 × g for 10 min prior to injection.
Plasma or bile (400 μL) was mixed and vortexed with 1200 μL of acetonitrile for […], then centrifuged at 15,000 × g for 10 min at 4°C. Afterward, the supernatant was evaporated until dry by a gentle stream of nitrogen at 37°C. The residue was dissolved by 80 μL of 5% methanol and centrifuged at 15,000 × g for 10 min. The supernatants (5 μL) were used in the UPLC/ESI-QTOF-MS analysis.
Chromatographic analysis was performed on an HSS T3 column (100 mm × 2.1 mm, 1.8 μm particle size; Waters Corporation, Milford, MA, USA) for separation of samples using an ACQUITY UPLC system equipped with a binary solvent manager system and an autosampler. […] The flow rate was 0.4 mL/min. The column and sample-tray temperatures were maintained at 40°C and 10°C, respectively.
A Waters ACQUITY Synapt G2 Q/TOF tandem mass spectrometer was combined with the UPLC system through an electrospray ionization (ESI) interface and controlled by Masslynx software (version 4.1, Waters Corp., Manchester, UK). The positive ionization mode of ESI source was operated. The optimized conditions for maximum detection of metabolites were as follows: source temperature, 120°C; desolvation temperature, 400°C; capillary voltage, 3.0 kV; sample cone, 30 V and extraction cone, 4.0 V. The cone and desolvation gas (N2) flows were set at 75 and 800 (L/h), respectively. […] Data were collected in centroid mode and the MS^E approach using a dynamic ramp of collision energy was carried out in two scan functions. Function 1 (low energy): mass scan ranged from 100–1000,with 0.2 s scan time and 0.05 s inter-scan delay; Function 2 (high energy): mass scan ranged from 100–1000 with 0.2 s scan time, 0.05 s inter-scan delay, and collision energy ramp of 10–40 V. MS/MS analysis were operated for major metabolites to obtain additional information from product ions since the same collision energy of MS^E in Function 2 could not match each precursor ion.

[2] = biological target: T1, AChE from Electrophorus electricus (Electrophorus electricus, UniProt O42275); test: biochemical; format: biochemical; conditions: for IC50: means ± SD of three replicate determinations; for fold reduction of AChE inhibitory activity: VAO vs VAS, VAO-3-S vs VAS-3-S, VAS-3-G vs VAS
T1 construct: purchased Sigma Aldrich Co. (St. Louis, MO, USA)
Source text: VAS and VAO were isolated from P. harmala in our laboratory according to a previously reported method. VAS and VAO structures were elucidated by comparing their spectral data (UV, MS, ^1H-NMR, and ^13C NMR) with the references. […] AChE from Electrophorus electricus, BChE from equine serum, acetylcholine (ACh) chloride, butyrocholine (BCh) chloride, choline (Ch) chloride, chlormequat (internal standard, IS), glucose 6-phosphate, glucose-6-phosphate dehydrogenase, NADP, UDPGA, alamethicin, fetal bovine serum, dexamethasone, and insulin were purchased from Sigma Aldrich Co. (St. Louis, MO, USA). Tris base and MgCl2 were purchased from Majorbio Biotech Corp., Ltd. (Shanghai, China). MCI Gel CHP 20P was purchased from Mitsubishi Chemical Crop. (Tokyo, Japan). Silica Gel C18 (MB 100-40/75) was purchased from Fuji Silysia Chemical Ltd. (Kasugai, Japan). Acetonitrile and methanol of HPLC grade were purchased from Fisher Scientific Co. (Santa Clara, USA). HPLC grade 96% formic acid was purchased from Tedia Co. (Fairfield, USA). Water was produced with a Milli-Q Academic System (Millipore, Billerica, MA). All other reagents and solvents were either analytical or HPLC grade.
(§1) The AChE and BChE inhibitory activities of VAS and its main metabolites, namely, VAO, VASL, VAOL, VAS-3-S, VAO-3-S, and VAS-3-G, were evaluated based on our previously established method. A 50 μL incubation system composed of 10 μL of the test compound solution (all the test compound solutions were diluted to a series of concentrations with buffer solution before each experiment) and 40 μL of the enzyme solutions (with final concentrations: 0.0035 unit/mL for AChE, or 0.008 unit/mL for BChE) were mixed and pre-incubated for 15 min. Up to 50 μL of substrate solution (final concentration of 5.505 μM for ACh, or 7.152 μM for BCh) was added into the mixture, which was then incubated for 20 min at 25°C. The reaction was terminated by addition of 300 μL of ice acetonitrile solution (0°C), which was immediately dissolved with 1.899 μM IS (chlormequat). The solution was then centrifuged (15,000 × g, 10 min), and the supernatant was used for analysis by UPLC-ESI MS/MS. The inhibitive IC50 values of VAS and its key metabolites on AChE and BChE were calculated using the Prism software (GraphPad Software Inc., San Diego, CA).

BChE from equine serum [3] = biological target: T2, BChE from equine serum (Equus caballus, UniProt P81908); test: In vitro anticholinesterase assay (UPLC-ESI MS/MS), BChE; format: biochemical; conditions: for IC50: means ± SD of three replicate determinations; for fold reduction of BChE inhibitory activity: VAO vs VAS, VAO-3-S vs VAS-3-S, VAS-3-G vs VAS
T2 construct: BChE from equine serum; purchased Sigma Aldrich Co. (St. Louis, MO, USA); host or cells: equine serum
Procedure: VAS and VAO were isolated from P. harmala in our laboratory according to a previously reported method. VAS and VAO structures were elucidated by comparing their spectral data (UV, MS, ^1H-NMR, and ^13C NMR) with the references. The purities of VAS and VAO were determined to be more than 98% through normalization of the peak areas detected by HPLC-DAD, UPLC-MS/MS, ^1H-NMR, and ^13C NMR. AChE from Electrophorus electricus, BChE from equine serum, acetylcholine (ACh) chloride, butyrocholine (BCh) chloride, choline (Ch) chloride, chlormequat (internal standard, IS), glucose 6-phosphate, glucose-6-phosphate dehydrogenase, NADP, UDPGA, alamethicin, fetal bovine serum, dexamethasone, and insulin were purchased from Sigma Aldrich Co. (St. Louis, MO, USA). Tris base and MgCl2 were purchased from Majorbio Biotech Corp., Ltd. (Shanghai, China). MCI Gel CHP 20P was purchased from Mitsubishi Chemical Crop. (Tokyo, Japan). Silica Gel C18 (MB 100-40/75) was purchased from Fuji Silysia Chemical Ltd. (Kasugai, Japan). Acetonitrile and methanol of HPLC grade were purchased from Fisher Scientific Co. (Santa Clara, USA). HPLC grade 96% formic acid was purchased from Tedia Co. (Fairfield, USA). Water was produced with a Milli-Q Academic System (Millipore, Billerica, MA). All other reagents and solvents were either analytical or HPLC grade.
as §1

[4] = Stability of glucuronide metabolites in collected urine; format: physicochemical; conditions: room temperature for an excessively long time, pH > 10
[5] = Bioavailability studies of VAS (unpublished data of the laboratory); conditions: in vivo, no published data; for half-life: read-out: elimination half-life (converted)
Source text: (§2) It illustrated that VAS is safe as a potential candidate drug.

rats = test: Observation of side effects during 21-day oral dosing for urine collection; format: in vivo, rat; conditions: 15 rats, oral 100 mg/kg once a day for 21 consecutive days
Procedure: The urine samples used for isolating and purifying the metabolites were collected from 15 rats that were given VAS orally once a day, over 21 consecutive days, at dose of 100 mg/kg body weight. In total, approximately 5 L of urine was collected and centrifuged at 4000 × g for 15 min. The supernatant was then stored at −20°C until use. At the end of experiment, all rats were sacrificed by CO2 asphyxiation.
as §2

BChE from equine serum [6] = biological target: T2, BChE from equine serum; set-up: method as in PMID 23270245, doi:10.1155/2013/71723, PMID 24631841; conditions: previous studies; ref [3], [6]–[8]; read-out: IC50 against BChE; cited from earlier work
[7] = LD50 determination of VAS (unpublished data); conditions: in vivo; no published data
Source text: as §2

[8] = biological target: T1, AChE from Electrophorus electricus; set-up: method as in PMID 23270245, doi:10.1155/2013/71723, PMID 24631841; conditions: previous studies; ref [3], [6]–[8]; read-out: IC50 against AChE; cited from earlier work
[9] = set-up: method as in ref [36] = [36]; 36 Swamy G , Ravikumar K . Crystal and molecular structures of quinazolines: A ring conformational study . J Chem Crystallogr . 2005; 35 : 183 – 189 .; conditions: in vitro and in vivo; ref [36]; cited from earlier work
[10] = set-up: method as in ref [37] = [37]; 37 Bhide M , Naik P , Ghooi R . Comparative studies on the pharmacological evaluation of vasicine and vasicinone . Bull Haffkin Inst . 1976; 4 : 45 – 50 .; conditions: comparable to sodium cromoglycate; ref [37]; cited from earlier work

T1 sequence (O42275 24-633): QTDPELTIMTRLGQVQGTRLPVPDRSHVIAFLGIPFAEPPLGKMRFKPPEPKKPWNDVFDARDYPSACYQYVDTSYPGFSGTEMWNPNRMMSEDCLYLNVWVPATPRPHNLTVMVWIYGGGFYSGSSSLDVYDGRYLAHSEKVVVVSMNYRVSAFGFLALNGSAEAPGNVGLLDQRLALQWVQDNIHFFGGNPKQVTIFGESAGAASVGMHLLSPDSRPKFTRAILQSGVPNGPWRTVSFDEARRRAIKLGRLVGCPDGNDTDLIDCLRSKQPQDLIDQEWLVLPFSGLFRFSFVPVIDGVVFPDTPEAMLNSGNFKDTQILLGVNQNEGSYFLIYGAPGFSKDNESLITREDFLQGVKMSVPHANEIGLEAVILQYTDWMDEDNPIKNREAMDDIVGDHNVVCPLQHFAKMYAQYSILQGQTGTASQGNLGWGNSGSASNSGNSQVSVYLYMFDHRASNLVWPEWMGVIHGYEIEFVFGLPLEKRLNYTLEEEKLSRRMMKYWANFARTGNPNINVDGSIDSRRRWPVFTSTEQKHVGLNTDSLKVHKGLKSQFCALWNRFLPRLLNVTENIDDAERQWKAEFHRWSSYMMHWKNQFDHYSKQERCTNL
T2 sequence (P81908 whole entry): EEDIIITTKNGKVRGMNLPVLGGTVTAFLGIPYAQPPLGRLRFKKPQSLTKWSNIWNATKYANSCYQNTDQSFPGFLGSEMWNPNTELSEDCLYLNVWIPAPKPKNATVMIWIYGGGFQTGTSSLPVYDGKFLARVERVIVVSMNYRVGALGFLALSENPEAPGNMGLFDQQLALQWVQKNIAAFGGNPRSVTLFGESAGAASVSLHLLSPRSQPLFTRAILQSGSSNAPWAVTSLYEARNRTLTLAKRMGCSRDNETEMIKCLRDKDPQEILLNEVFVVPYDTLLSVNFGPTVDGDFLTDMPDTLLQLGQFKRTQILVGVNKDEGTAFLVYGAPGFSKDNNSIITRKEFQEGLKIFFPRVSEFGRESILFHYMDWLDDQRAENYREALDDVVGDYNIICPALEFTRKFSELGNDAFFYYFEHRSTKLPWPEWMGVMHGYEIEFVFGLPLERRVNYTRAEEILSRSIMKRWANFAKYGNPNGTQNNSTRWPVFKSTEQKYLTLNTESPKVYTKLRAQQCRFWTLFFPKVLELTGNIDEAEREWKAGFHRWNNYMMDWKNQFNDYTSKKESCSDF

| SMILES | abundance in plasma [1] | SI (AChE selectivity index, IC50 BChE/IC50 AChE) [2] | IC50 [2] | IC50 (BChE from equine serum [3]) | fold reduction of BChE inhibitory activity (BChE from equine serum [3]) | also measured |
| --- | --- | --- | --- | --- | --- | --- |
| OC1CCN2C1=Nc1ccccc1C2O (stereo not shown) [Metabolite M3-3, 1,2,3,9-tetrahydropyrrolo [2,1-b] quinazolin-3,9-diol] | high abundance |  |  |  |  |  |
| O=S(=O)(O)OC1CCN2Cc3ccccc3N=C12 (stereo not shown) [Metabolite M15, 1,2,3,9-tetrahydropyrrolo [2,1-b] quinazolin-3-yl hydrogen sulfate] | high abundance | 0.198 | 49.6 ± 2.77 µM | 9.82 ± 0.925 µM |  |  |
| O=C(O)[C@H]1O[C@@H](O[C@H]2CCn3c2nc2ccccc2c3=O)[C@H](O)[C@@H](O)[C@@H]1O [Metabolite M21-2, vasicinone-3-O-glucuronide] | high abundance |  |  |  |  | stability in urine sample [4]: hydrolyzed |
| Oc1ccc2c(c1)CN1CCC(O)C1=N2 (stereo not shown) [Metabolite M3-2, vasicinol] |  | 0.930 | 2.65 ± 0.432 µM | 2.46 ± 0.224 µM |  |  |
| O=C(O)C1OC(OC2CCN3Cc4ccccc4N=C23)C(O)C(O)C1O [Metabolite M20-2, 1,2,3,9-tetrahydropyrrolo [2,1-b] quinazolin-3-β-D-glucuronide] | high abundance | 4.998 | 20.8 ± 0.329 µM | 104 ± 15.5 µM | 1027.7 fold | stability in urine sample [4]: hydrolyzed |
| O[C@H]1CCN2Cc3ccccc3N=C12 [Metabolite M0, Vasicine] |  | 0.030 | 3.38 ± 0.03 µM | 0.101 ± 0.003 µM |  | half-life ([5]; after intravenous administration): ~5 h; bioavailability ([5]; after oral administration, read-out: absolute bioavailability): ~50%; half-life ([5]; after oral administration): ~1.5 h; observable side effects (rats): no any observable side effects; IC50 (BChE from equine serum [6]): 0.1 µM; LD50 [7]: 308 mg/kg; IC50 [8]: 3.24 ± 0.08 µM |
| O=c1c2ccccc2nc2n1CCC2OS(=O)(=O)O (stereo not shown) [Metabolite M16, 9-oxo-1,2,3,9-tetrahydropyrrolo [2,1-b] quinazolin-3-yl hydrogen sulfate] | high abundance | 0.069 | 395 ± 19.5 µM | 27.3 ± 5.03 µM | 2.8 fold | fold reduction of AChE inhibitory activity [2]: 8.0 fold |
| O=c1c2cc(O)ccc2nc2n1CCC2O (stereo not shown) [Metabolite M5-2, vasicinolone] |  | 1.545 | 46.9 ± 2.84 µM | 72.4 ± 8.63 µM |  |  |
| O=c1c2ccccc2nc2n1CCC2O (stereo not shown) [Metabolite M1, vasicinone] | high abundance | 0.133 | 76.6 ± 8.46 µM | 10.2 ± 2.08 µM | 101.0 fold | bronchodilatory effects compared with VAS [9]: more bronchodilatory effects than parent VAS; fold reduction of AChE inhibitory activity [2]: 22.7 fold; anti-asthmatic activity compared with VAS [10]: more potent anti-asthmatic activity than VAS |
